Measured values: US20150366819A1, “COMPOSITIONS AND METHODS FOR TREATING HOOF DISEASES” (AGROCHEM, INC., priority 2008, published 2015)

How the values were obtained:
[1] = tested on: digital dermatitis lesions; experiment: Actual field application on digital dermatitis lesions (scab formation); assay type: in vivo, cow; conditions: glutaraldehyde at less than 5%, applied on digital dermatitis lesions
[2] = tested on: Hydrolyzed Bovine Dry Collagen protein medium; experiment: Cross-linking test: skin (crust) formation on protein medium after spraying
Description: Tests were performed in order to obtain a skin (crust) on the protein medium by using a cross-linking agent. Time, temperature and skim formation were monitored. Tests were performed at 40° F.—both medium and solutions were cooled to test temperature. Test medium was prepared by mixing a solution containing 85% D.I. water and 15% Hydrolyzed Bovine Dry Collagen (purchased from Milligan & Higgens). Approx 4 oz of the preparation was put into Petri dishes, placed in a refrigerator for thirty minutes before reacclimatizing at room temperature, ready for testing. Subsequently, the various test solutions were poured into 4 oz bottles with spray nozzles and 10 ml of solution was sprayed onto the medium in the petri dishes from a distance of 6 inches, timed and viewed at 15 minute intervals and the contents of the petri dish was then scored for skin formation. The time and extent of skin formation was noted and transposed to graphs (see FIGS. 1-4).
A second series of tests were run using Egg Albumin Powder (purchased from J.T. Baker) as the protein medium, prepared by mixing 85% D.I. water and 15% Egg Albumin Powder. Both test produced identical results.
Lab testing was performed to assess cross-linking ability of various compositions. […]

Row | Compound | facilitating adequate scab formation in an acceptable time span [1] | cross-linking of test samples (in words) ([2]; glutaraldehyde reduced to less than 5%, FIG. 2) | cross-linking effects, maximum extent of skin formation ([2]; glyoxal alone, scored from 0 to 10, FIG. 3)
1 | O=CCCCC=O [glutaraldehyde] | ineffective | significantly less cross-linking | 
2 | O=CC=O [glyoxal] |  |  | 2.5
